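1) Cells in 96-well plates. 2) Compound, 48 h, 5 concentrations. 3) Linear interpolation between surrounding doses. 4) Unreached endpoint = highest concentration. TGI is the concentration that stops growth completely.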
Key:
Assay in all cases: NCI-60 cell line screen, 48 h
A549 NSCLC = tested on: A549 NSCLC
PC-3 prostate = tested on: PC-3 prostate
A498 renal = tested on: A498 renal
CCRF-CEM leukemia = tested on: CCRF-CEM leukemia
SN12C renal = tested on: SN12C renal
ACHN renal = tested on: ACHN renal
KM12 colon = tested on: KM12 colon
NCI/ADR-RES ovarian = tested on: NCI/ADR-RES ovarian
K-562 leukemia = tested on: K-562 leukemia
SW-620 colon = tested on: SW-620 colon
NCI-H23 lung = tested on: NCI-H23 lung
SK-MEL-2 melanoma = tested on: SK-MEL-2 melanoma
MOLT-4 leukemia = tested on: MOLT-4 leukemia
SF-539 CNS = tested on: SF-539 CNS
NCI-H226 lung = tested on: NCI-H226 lung
LOX IMVI melanoma = tested on: LOX IMVI melanoma
UACC-257 melanoma = tested on: UACC-257 melanoma

Structure (SMILES) | TGI (A549 NSCLC) [µM] | TGI (PC-3 prostate) [µM] | TGI (A498 renal) [µM] | TGI (CCRF-CEM leukemia) [µM] | TGI (SN12C renal) [µM] | TGI (ACHN renal) [µM] | TGI (KM12 colon) [µM] | TGI (NCI/ADR-RES ovarian) [µM] | TGI (K-562 leukemia) [µM] | TGI (SW-620 colon) [µM] | TGI (NCI-H23 lung) [µM] | TGI (SK-MEL-2 melanoma) [µM] | TGI (MOLT-4 leukemia) [µM] | TGI (SF-539 CNS) [µM] | TGI (NCI-H226 lung) [µM] | TGI (LOX IMVI melanoma) [µM] | TGI (UACC-257 melanoma) [µM]
COc1ccc(C2=NN(C(=O)c3ccccc3)C(O)(c3cc(F)c(Cl)cc3Cl)C2)cc1OC (stereo not given) | > 100 | > 100 | > 100 | > 100 | > 100 | > 100 | > 100 | > 100 | > 100 | > 100 | > 100 | 91.7 | > 100 | > 100 | > 100 | > 100 | > 100
CC(=O)c1c2c(cc3c1CC1(Cc4cc5c(cc4C1=O)CCC5)C3)CCC2 (stereo not given) | > 100 | > 100 | > 100 | > 73.7 | > 100 | > 100 | > 100 | > 100 | > 100 | > 100 | > 100 | > 100 | > 100 | > 100 | > 100 | > 100 | > 100
Cc1nc2c(O)cccc2c(=O)[nH]1 | > 1000 | > 1000 | > 1000 | > 1000 | > 1000 | > 1000 | > 1000 | > 1000 | > 1000 | > 1000 | > 1000 | > 1000 | > 1000 | > 1000 | > 1000 | > 1000 | > 1000
CC(C)(C)[Si](C)(C)OCC1OC(n2cc(F)c(=O)[nH]c2=O)CC1O[Si](C)(C)C(C)(C)C (stereo not given) | 25.6 | 14.2 | 21.1 | 10.2 | 9.43 | 21.8 | 14.7 | 35.6 | 16 | 23.1 | 19.6 | 29.7 | 22 | 30.7 | 42.9 | 20 | 15.9
COc1ccc(N2C(=O)CSC2c2cc3cc(Br)ccc3nc2Cl)cc1 (stereo not given) | > 50 | > 50 | > 50 | > 50 | > 50 | > 50 | > 50 | > 50 | > 50 | > 50 | > 50 | > 50 | > 50 | > 50 | > 50 | > 50 | > 50
